Measured values: patent US8828990B2, “N-7 substituted purine and pyrazolopyrimine compounds, compositions and methods of use” (priority 2009, dated 2014)
Read-outs that look alike come from different tables or passages of the source.

Key:
[1] = target: T1, PI3K-alpha (Homo sapiens, UniProt P42336); assay type: biochemical
T1 construct: purchased Upstate Cell Signaling Solutions
Procedure: The kinase activity of mTOR enzyme is assessed by incubating purified recombinant enzyme (mTOR(1360-2549)+GBL, prepared in-house) in a reaction mixture containing ATP, MnCl2, and a fluorescently labeled mTOR substrate, e.g., GFP-4E-BP1 (Invitrogen, product #PR8808A). The reaction is stopped by an addition of a Terbium-labeled phospho-specific antibody, e.g., Tb-labeled anti-p4E-BP1 T37/T46, (Invitrogen, product #PR8835A), EDTA, and TR-FRET buffer solution (Invitrogen, Product #PR3756B). Product formation is detected by way of time-resolved fluorescence resonance energy transfer (TR-FRET), which occurs when the phosphorylated substrate and labeled antibody are in close proximity due to phospho-specific binding. Enzymatic activity is measured as an increase in TR-FRET signal using a Perkin Elmer Envision plate reader. The assay is performed in a 384-well Proxiplate Plus (Perkin Elmer. Product #6008269) using the following protocol:
(§1) Compound activity is tested in 10 point dose curves starting at the highest final concentration of 10 uM. They are serially diluted in 100% DMSO prior to further dilution with assay buffer. The reaction mixture (8 uls) containing 0.25 nM mTOR+GBL enzyme, 400 nM GFP-4E-BP1, 8 uM ATP, 50 mM Hepes pH 7.5, 0.01% Tween 20, 10 mM MnCl2, 1 mM EGTA, 1 mM DTT, 1% DMSO (+/−compound) is incubated at room temperature for 30 minutes. 8 μL of solution containing 2 nM Tb-anti-p4E-BP1 antibody & 10 mM EDTA diluted TR-FRET buffer is then added and incubated for 30 minutes to stop the reaction. The plate is scanned with the Envision plate reader. Ki values are calculated in Assay Explorer using the Morrison ATP-competitive tight binding equation for Ki apparent determination.
Binding Assays: Initial polarization experiments were performed on an Analyst HT 96-384 (Molecular Devices Corp, Sunnyvale, Calif.). […] After an incubation time of 30 minutes at room temperature, the reactions were stopped by the addition of GRP-1 and PIP3-TAMRA probe (Echelon-Inc., Salt Lake City, Utah) 100 nM and 5 nM final concentrations respectively. […] This experiment also establishes the appropriate protein concentration to use in subsequent competition experiments with inhibitors.
After an incubation time of 30 minutes at room temperature, the reactions were stopped by the addition of GRP-1 and PIP3-TAMRA probe (Echelon-Inc., Salt Lake City, Utah) 100 nM and 5 nM final concentrations respectively.

[2] = target: T2, mTOR kinase (mTOR(1360-2549)+GBL) (Homo sapiens, UniProt P42345); experiment: In vitro mTOR kinase assay (TR-FRET); assay type: biochemical; settings: read-out: activity level (Ki) in the mTOR kinase assay
T2 construct: mTOR(1360-2549)+GBL, prepared in-house; made in house
T2 sequence (P42345 1360-2549): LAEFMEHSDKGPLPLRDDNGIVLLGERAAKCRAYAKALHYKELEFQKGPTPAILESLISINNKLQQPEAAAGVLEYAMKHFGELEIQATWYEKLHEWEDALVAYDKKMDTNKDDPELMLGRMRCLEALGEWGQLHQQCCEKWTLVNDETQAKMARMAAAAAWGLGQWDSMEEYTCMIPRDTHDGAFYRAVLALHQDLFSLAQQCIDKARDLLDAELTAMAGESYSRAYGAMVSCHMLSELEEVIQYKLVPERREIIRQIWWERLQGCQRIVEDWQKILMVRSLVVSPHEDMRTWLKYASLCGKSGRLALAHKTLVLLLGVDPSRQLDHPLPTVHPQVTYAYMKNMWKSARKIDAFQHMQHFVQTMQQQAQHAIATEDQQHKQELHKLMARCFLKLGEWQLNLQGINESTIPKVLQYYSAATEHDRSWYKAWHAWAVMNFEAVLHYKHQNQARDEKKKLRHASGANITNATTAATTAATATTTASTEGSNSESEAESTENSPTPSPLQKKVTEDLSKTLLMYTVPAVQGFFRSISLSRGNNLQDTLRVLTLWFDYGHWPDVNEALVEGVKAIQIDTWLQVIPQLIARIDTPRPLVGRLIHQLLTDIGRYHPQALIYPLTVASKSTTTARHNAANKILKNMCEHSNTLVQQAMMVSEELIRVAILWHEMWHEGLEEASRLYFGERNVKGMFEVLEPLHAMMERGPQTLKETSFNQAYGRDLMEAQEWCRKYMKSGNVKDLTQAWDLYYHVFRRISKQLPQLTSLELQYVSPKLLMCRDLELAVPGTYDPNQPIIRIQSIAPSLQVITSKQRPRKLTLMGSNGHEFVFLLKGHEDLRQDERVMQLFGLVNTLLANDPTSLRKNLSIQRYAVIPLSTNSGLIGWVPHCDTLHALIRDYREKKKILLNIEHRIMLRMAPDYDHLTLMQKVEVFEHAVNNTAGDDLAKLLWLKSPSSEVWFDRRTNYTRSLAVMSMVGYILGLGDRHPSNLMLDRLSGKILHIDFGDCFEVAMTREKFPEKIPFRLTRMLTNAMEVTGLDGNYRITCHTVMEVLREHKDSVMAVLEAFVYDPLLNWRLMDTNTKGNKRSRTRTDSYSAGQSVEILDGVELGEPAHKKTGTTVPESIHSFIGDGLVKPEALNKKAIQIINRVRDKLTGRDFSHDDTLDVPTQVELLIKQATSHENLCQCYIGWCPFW
T2 sequence (Q9BVC4 whole entry partner): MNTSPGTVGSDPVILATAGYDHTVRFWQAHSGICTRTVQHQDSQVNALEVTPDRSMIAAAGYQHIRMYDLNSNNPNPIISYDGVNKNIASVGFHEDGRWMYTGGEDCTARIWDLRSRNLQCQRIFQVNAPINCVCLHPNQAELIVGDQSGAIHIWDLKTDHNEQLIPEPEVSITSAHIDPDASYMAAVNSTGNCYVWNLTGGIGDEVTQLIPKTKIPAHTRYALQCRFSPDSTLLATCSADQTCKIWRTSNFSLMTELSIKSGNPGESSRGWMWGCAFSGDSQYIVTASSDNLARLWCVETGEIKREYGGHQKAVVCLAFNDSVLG
Procedure: The reaction is stopped by an addition of a Terbium-labeled phospho-specific antibody, e.g., Tb-labeled anti-p4E-BP1 T37/T46, (Invitrogen, product #PR8835A), EDTA, and TR-FRET buffer solution (Invitrogen, Product #PR3756B). Product formation is detected by way of time-resolved fluorescence resonance energy transfer (TR-FRET), which occurs when the phosphorylated substrate and labeled antibody are in close proximity due to phospho-specific binding. Enzymatic activity is measured as an increase in TR-FRET signal using a Perkin Elmer Envision plate reader.
as §1, with “The reaction mixture (8 uls) containing 0.25 nM mTOR+GBL enzyme, 400 nM GFP-4E-BP1, 8 uM ATP, 50 mM Hepes pH 7.5, 0.01% Tween 20, 10 mM MnCl2, 1 mM EGTA, 1 mM DTT, 1% DMSO (+/−compound) is incubated at room temperature for 30 minutes.” left out

[3] = tested on: PC3 cells; experiment: In vitro cell proliferation assay; assay type: cell-based; settings: Homo sapiens
Procedure: Efficacy of Formula I compounds were measured by a cell proliferation assay employing the following protocol: 1. An aliquot of 20 μl of cell culture containing about 10^3 cells (PC3 or MDAMB361.1) in medium was deposited in each well of a 384-well, opaque-walled plate. 2. Control wells were prepared containing medium and without cells; Cells were allowed to settle overnight. 3. The compound was added to the experimental wells and incubated for 3 days. 4. The plates were equilibrated to room temperature for approximately 30 minutes. 5. A volume of CellTiter-Glo Reagent equal to the volume of cell culture medium present in each well was added. 6. The contents were mixed for 2 minutes on an orbital shaker to induce cell lysis. 7. The plate was incubated at room temperature for 20 minutes to stabilize the luminescence signal. […] Luminescence was recorded and reported in graphs as RLU=relative luminescence units. Alternatively, cells were seeded at optimal density in a 96 well plate and incubated for 4 days in the presence of test compound. […] IC50 values were calculated using a sigmoidal dose response curve fit.

[4] = tested on: AKT serine-473 phosphorylation in EGF-stimulated PC-3 cells; experiment: In vitro phospho-AKT serine 473 cellular assay; assay type: cell-based; settings: Homo sapiens
Procedure: The PC-3 cell line is maintained in RPMI1640 media supplemented with 10% FBS, 2 mM Glutamine, and 10 mM HEPES pH 7.4 at 37° C. in a 5% CO2 humidified incubator.
Cells are seeded in 384-well plates at 7,000 cells/well in […] growth media. After 24 hours, growth media is removed and replaced with RPMI1640 containing no FBS. Cells are treated with 10 concentrations of test compounds or DMSO alone for controls (final DMSO concentration 0.5%) and incubated at 37° C. for 30 minutes. Cells are then stimulated for 10 minutes with 100 ng/ml EGF (final concentration). One column of controls is not stimulated with EGF to observe the signal ratio between stimulated and non-stimulated cells. After 10 minutes, compounds and stimulation media are removed and replaced with 25 μl lysis buffer containing protease inhibitors and phosphatase inhibitors. This buffer contains detergent to bring about cellular disruption. […] Following the transfer of lysate to the MSD plate, AKT in the lysate is captured on the coated antibody by incubation on a shaker at 4° C. for 16 hours. Following the capture step the plate is washed and then incubated for two hours with an antibody to S473 phosphorylated AKT which is conjugated with a Sulfo-Tag. This tag gives a signal when in proximity to the electrode on the base of the MSD plate. Binding the tagged antibody to the captured protein allow detection on a MSD reader.
EC50 values are calculated using MDL Assay Explorer 3.0.1.8 fitting a sigmoidal curve with a variable slope.

[5] = PC-3, with PC3 cells, read-out: IC50 value, cell proliferation
[6] = recombinant mTOR+GBL, 8 uM ATP, Ki apparent
[7] = PC-3, read-out: IC50 value, cell proliferation
[8] = PC-3 cells stimulated with EGF, read-out: EC50 activity level, inhibition of S473 AKT phosphorylation

T1 sequence (P42336 whole entry, species assumed): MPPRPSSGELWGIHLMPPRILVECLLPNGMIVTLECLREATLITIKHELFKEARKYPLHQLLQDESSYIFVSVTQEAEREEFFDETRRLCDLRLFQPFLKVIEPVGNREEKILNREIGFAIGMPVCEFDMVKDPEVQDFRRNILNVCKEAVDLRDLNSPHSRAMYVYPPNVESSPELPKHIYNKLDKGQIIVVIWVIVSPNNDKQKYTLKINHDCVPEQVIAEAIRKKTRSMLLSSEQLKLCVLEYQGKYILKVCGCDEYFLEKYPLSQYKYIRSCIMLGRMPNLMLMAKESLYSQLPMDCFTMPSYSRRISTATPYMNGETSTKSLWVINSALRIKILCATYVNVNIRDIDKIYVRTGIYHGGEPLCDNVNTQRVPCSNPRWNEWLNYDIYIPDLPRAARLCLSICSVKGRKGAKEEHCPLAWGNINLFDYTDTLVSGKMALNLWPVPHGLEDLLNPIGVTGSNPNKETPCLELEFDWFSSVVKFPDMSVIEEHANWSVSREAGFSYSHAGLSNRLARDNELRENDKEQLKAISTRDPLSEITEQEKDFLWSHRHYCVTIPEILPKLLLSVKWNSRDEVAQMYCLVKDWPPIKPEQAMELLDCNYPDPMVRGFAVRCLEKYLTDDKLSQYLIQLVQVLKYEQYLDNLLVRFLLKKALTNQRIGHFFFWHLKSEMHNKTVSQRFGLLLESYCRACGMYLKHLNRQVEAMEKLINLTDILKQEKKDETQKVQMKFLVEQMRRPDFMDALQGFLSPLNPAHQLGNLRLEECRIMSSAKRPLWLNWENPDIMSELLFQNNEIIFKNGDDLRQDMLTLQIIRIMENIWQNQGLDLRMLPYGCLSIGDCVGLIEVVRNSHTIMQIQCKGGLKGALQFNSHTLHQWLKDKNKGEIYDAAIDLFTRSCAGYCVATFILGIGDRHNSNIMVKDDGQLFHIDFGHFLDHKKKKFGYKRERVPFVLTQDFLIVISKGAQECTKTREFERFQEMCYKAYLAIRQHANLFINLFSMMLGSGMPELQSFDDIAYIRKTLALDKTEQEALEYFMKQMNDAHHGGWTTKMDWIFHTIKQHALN
T1 sequence (P27986 whole entry partner, species assumed): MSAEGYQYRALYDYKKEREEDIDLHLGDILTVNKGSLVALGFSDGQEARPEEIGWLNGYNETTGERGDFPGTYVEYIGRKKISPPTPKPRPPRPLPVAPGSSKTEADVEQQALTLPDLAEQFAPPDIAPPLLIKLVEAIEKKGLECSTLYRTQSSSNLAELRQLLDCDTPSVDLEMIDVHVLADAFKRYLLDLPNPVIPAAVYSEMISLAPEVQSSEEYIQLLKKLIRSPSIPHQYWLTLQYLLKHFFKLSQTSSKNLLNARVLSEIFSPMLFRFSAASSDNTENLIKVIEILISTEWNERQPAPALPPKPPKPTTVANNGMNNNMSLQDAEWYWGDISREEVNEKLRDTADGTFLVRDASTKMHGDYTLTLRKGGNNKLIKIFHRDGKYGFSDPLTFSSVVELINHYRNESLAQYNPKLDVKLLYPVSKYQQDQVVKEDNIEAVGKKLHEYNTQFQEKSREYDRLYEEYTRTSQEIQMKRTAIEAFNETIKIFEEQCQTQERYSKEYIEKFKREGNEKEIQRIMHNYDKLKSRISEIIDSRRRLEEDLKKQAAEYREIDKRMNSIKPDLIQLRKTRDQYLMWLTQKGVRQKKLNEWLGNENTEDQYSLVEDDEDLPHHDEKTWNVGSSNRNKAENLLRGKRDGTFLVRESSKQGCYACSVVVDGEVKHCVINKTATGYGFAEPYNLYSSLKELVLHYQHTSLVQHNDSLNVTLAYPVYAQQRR

Ki [2] [nM]	IC50 [3, 5] [nM]	Structure (SMILES)	Ki [2, 6] [nM]	other results
–	–	CCNC(=O)Nc1ccc(-c2nc(N3CCOC[C@@H]3C)c3ncn(CC)c3n2)cc1 [(S)-1-ethyl-3-(4-(9-ethyl-6-(3-methylmorpholino)-9H-purin-2-yl)phenyl)urea, reference compound]	–	selectivity for mTOR kinase over related PI3 kinase (PI3K-alpha) [1]: 45 ×
–	–	CCNC(=O)Nc1ccc(-c2nc(N3CCOC[C@@H]3C)c3ncn(C)c3n2)cc1 [(S)-1-ethyl-3-(4-(9-methyl-6-(3-methylmorpholino)-9H-purin-2-yl)phenyl)urea, reference compound]	–	selectivity for mTOR kinase over related PI3 kinase (PI3K-alpha) [1]: 29 ×
143	–	CCNC(=O)Nc1ccc(-c2nc(N3CCOCC3)c3c(ncn3C)n2)cc1 [Compound 101, 1-ethyl-3-(4-(7-methyl-6-morpholino-7H-purin-2-yl)phenyl)urea]	–	–
–	294	CCNC(=O)Nc1ccc(-c2nc(N3CCOC[C@@H]3C)c3c(ncn3C)n2)cc1 [Compound 102, (S)-1-ethyl-3-(4-(7-methyl-6-(3-methylmorpholino)-7H-purin-2-yl)phenyl)urea]	–	–
–	10000	CCNC(=O)Nc1ccc(-c2nc(N3CCOC[C@H]3C)c3c(ncn3C)n2)cc1 [Compound 103, (R)-1-ethyl-3-(4-(7-methyl-6-(3-methylmorpholino)-7H-purin-2-yl)phenyl)urea]	–	–
–	–	CCNC(=O)Nc1ccc(-c2nc(N3CCCOCC3)c3c(ncn3C)n2)cc1 [Compound 105, 1-ethyl-3-(4-(7-methyl-6-(1,4-oxazepan-4-yl)-7H-purin-2-yl)phenyl)urea]	121	–
–	–	CCNC(=O)Nc1ccc(-c2nc(N3CCOC[C@@H]3C)c3c(ncn3CC)n2)cc1 [Compound 106, (S)-1-ethyl-3-(4-(7-ethyl-6-(3-methylmorpholino)-7H-purin-2-yl)phenyl)urea]	40	IC50 [3, 7]: 4200 nM; EC50 [4, 8]: 511 nM; selectivity for mTOR kinase over related PI3 kinase (PI3K-alpha) [1]: 250 ×
53	2400	CCCCc1nc2nc(-c3ccc(NC(=O)NCC)cc3)nc(N3CCOC[C@@H]3C)c2n1C [Compound 107, (S)-1-(4-(8-butyl-7-methyl-6-(3-methylmorpholino)-7H-purin-2-yl)phenyl)-3-ethylurea]	–	–
–	–	CCNC(=O)Nc1ccc(-c2nc(N3CCOC[C@@H]3C)c3c(n2)nc(C(C)(C)O)n3C)cc1 [Compound 108, (S)-1-ethyl-3-(4-(8-(2-hydroxypropan-2-yl)-7-methyl-6-(3-methylmorpholino)-7H-purin-2-yl)phenyl)urea]	30	IC50 [3, 7]: 8000 nM; EC50 [4, 8]: 3500 nM
28	2900	CCNC(=O)Nc1ccc(-c2nc(N3CCOC[C@@H]3CC)c3c(cnn3C)n2)cc1 [Compound 111, (S)-1-ethyl-3-(4-(7-(3-ethylmorpholino)-1-methyl-1H-pyrazolo[4,3-d]pyrimidin-5-yl)phenyl)urea]	–	–
–	86	CCNC(=O)Nc1ccc(-c2nc(N3CCOC[C@@H]3CC)c3c(n2)c(C)nn3C)cc1 [Compound 112, (S)-1-ethyl-3-(4-(7-(3-ethylmorpholino)-1,3-dimethyl-1H-pyrazolo[4,3-d]pyrimidin-5-yl)phenyl)urea]	2	–
39	5900	C[C@H]1COCCN1c1nc(-c2ccc(NC(=O)NC3COC3)cc2)nc2cnn(C)c12 [Compound 113, (S)-1-(4-(1-methyl-7-(3-methylmorpholino)-1H-pyrazolo[4,3-d]pyrimidin-5-yl)phenyl)-3-(oxetan-3-yl)urea]	–	–
145	–	C[C@H]1COCCN1c1nc(-c2ccc(NC(=O)NCCS(C)(=O)=O)cc2)nc2cnn(C)c12 [Compound 114, (S)-1-(4-(1-methyl-7-(3-methylmorpholino)-1H-pyrazolo[4,3-d]pyrimidin-5-yl)phenyl)-3-(2-(methylsulfonyl)ethyl)urea]	–	–

Structure (SMILES)	Ki [2] [nM]	IC50 [3, 5] [nM]	Ki [2, 6] [nM]	other results
CCNC(=O)Nc1ccc(-c2nc(N3CCOC[C@@H]3CC)c3c(ncn3C)n2)cc1 [Compound 104, (S)-1-ethyl-3-(4-(6-(3-ethylmorpholino)-7-methyl-7H-purin-2-yl)phenyl)urea]	–	737	4	EC50 ([4]; PC-3, read-out: EC50 activity level, inhibition of S473 AKT phosphorylation): 69 nM
CCNC(=O)Nc1ccc(-c2nc(N3C[C@@H]4C[C@H]3CO4)c3c(cnn3C)n2)cc1 [Compound 109, 1-(4-(7-((1S,4S)-2-oxa-5-azabicyclo[2.2.1]heptan-5-yl)-1-methyl-1H-pyrazolo[4,3-d]pyrimidin-5-yl)phenyl)-3-ethylurea]	8	–	–	IC50 [3, 7]: 399 nM
CCNC(=O)Nc1ccc(-c2nc(N3CCOC[C@@H]3C)c3c(cnn3C)n2)cc1 [Compound 110, (S)-1-ethyl-3-(4-(1-methyl-7-(3-methylmorpholino)-1H-pyrazolo[4,3-d]pyrimidin-5-yl)phenyl)urea]	1	–	–	IC50 [3, 7]: 131 nM; selectivity for mTOR kinase over related PI3 kinase (PI3K-alpha) [1]: 1250 ×
